Test results: patent US8435978B2, “Substituted sulfonamide compounds” (Gruenenthal GmbH, priority 2006, dated 2013)

What was measured:
B1R receptor of the rat = target: T1, B1R receptor of the rat (Rattus norvegicus, UniProt P97583); test: Functional study on the bradykinin receptor 1 (B1R), FLIPR Ca2+ assay, rB1R cells; assay type: cell-based; conditions: agonist Des-Arg9-bradykinin 100 nM, % inhibition compared with the maximum achievable inhibition; for inhibition at 10 µM: CHO-K1, test substance 10 μM, read-out: B1R Antagonism, rat [10 μM] % Inhibition
T1 construct: host or cells: CHO K1 cells (Chinese hamster ovary), stably transfected
T1 sequence (P97583 1-337): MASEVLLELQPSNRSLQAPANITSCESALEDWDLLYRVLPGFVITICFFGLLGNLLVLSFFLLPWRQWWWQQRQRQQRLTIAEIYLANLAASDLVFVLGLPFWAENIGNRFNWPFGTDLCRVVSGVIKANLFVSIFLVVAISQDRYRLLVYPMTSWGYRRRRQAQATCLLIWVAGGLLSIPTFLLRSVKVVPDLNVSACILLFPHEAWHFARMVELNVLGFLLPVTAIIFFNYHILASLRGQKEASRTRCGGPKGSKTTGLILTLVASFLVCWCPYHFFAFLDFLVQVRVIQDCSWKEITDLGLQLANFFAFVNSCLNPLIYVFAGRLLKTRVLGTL
In short: (§1)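 CHO K1 cells stably expressing human or rat B1R were loaded with Fluo-4 and read on a FLIPR (ex 488/em 540 nm, peak fluorescence). Test compounds at 10 μM were added first, then after 10 min agonist: Lys-Des-Arg9-bradykinin 0.5 nM for hB1R, Des-Arg9-bradykinin 100 nM for rB1R; % inhibition versus maximum inhibition.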

human B1R receptor = target: T2, human B1R receptor (Homo sapiens, UniProt P46663); test: Functional study on the bradykinin receptor 1 (B1R), FLIPR Ca2+ assay, hB1R cells; assay type: cell-based; conditions: agonist Lys-Des-Arg9-bradykinin 0.5 nM, % inhibition compared with the maximum achievable inhibition; for inhibition at 10 µM: CHO-K1, test substance 10 μM, read-out: B1R Antagonism, human [10 μM] % Inhibition
T2 construct: host or cells: CHO K1 cells (Chinese hamster ovary), stably transfected
T2 sequence (P46663 1-353): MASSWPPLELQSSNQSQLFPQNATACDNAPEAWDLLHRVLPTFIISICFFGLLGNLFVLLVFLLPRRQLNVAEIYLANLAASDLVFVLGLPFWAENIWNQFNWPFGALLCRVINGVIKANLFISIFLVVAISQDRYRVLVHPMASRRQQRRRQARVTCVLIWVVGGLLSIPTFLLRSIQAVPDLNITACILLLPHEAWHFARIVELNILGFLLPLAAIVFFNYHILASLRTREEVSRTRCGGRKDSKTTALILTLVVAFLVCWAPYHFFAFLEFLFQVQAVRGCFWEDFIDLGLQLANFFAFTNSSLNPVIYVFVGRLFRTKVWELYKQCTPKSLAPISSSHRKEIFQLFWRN
In short: as §1

Structure (SMILES)	inhibition at 10 µM (B1R receptor of the rat)	inhibition at 10 µM (human B1R receptor)	B1R Antagonism, rat [10 μM] % Inhibition (B1R receptor of the rat; test substance 10 μM, rB1R CHO K1 cells)	B1R Antagonism, human [10 μM] % Inhibition (human B1R receptor; test substance 10 μM, hB1R CHO K1 cells)
COc1cc(C)c(S(=O)(=O)N2CCCCC2COCC(=O)Nc2ccc(CN3CCCCC3)cc2)c(C)c1 (stereo not drawn) [Example 419, 2-((1-(4-methoxy-2,6-dimethylphenylsulfonyl)piperidin-2-yl)methoxy)-N-(4-(piperidin-1-ylmethyl)phenyl)acetamide]	101%	100%		
COc1cc(C)c(S(=O)(=O)N2CCCCC2COCC(=O)Nc2ccc(Cn3ccnc3)cc2)c(C)c1 (stereo not drawn) [Example 420, N-(4-((1H-imidazol-1-yl)methyl)phenyl)-2-((1-(4-methoxy-2,6-dimethylphenylsulfonyl)piperidin-2-yl)methoxy)acetamide]	92%	100%		
COc1cc(C)c(S(=O)(=O)N2CCCCC2COCC(=O)Nc2ccc(CN3CCC(C)CC3)cc2)c(C)c1 (stereo not drawn) [Example 421, 2-((1-(4-methoxy-2,6-dimethylphenylsulfonyl)piperidin-2-yl)methoxy)-N-(4-((4-methylpiperidin-1-yl)methyl)phenyl)acetamide]	93.4%	97.3%		
COc1ccc(S(=O)(=O)N2c3ccccc3CC2COCC(=O)NCC2CCCN(Cc3ccccc3)C2)cc1 (stereo not drawn) [Example 422, N-((1-benzylpiperidin-3-yl)methyl)-2-((1-(4-methoxyphenylsulfonyl)indolin-2-yl)methoxy)acetamide]	98.6%	48%		
COc1ccc(S(=O)(=O)N2c3ccccc3CC2COCC(=O)Nc2cccc(CN3CCCCC3)c2)cc1 (stereo not drawn) [Example 423, 2-((1-(4-methoxyphenylsulfonyl)indolin-2-yl)methoxy)-N-(3-(piperidin-1-ylmethyl)phenyl)acetamide]	80.1%	58.7%		
CCN(CCCNC(=O)COCC1CCCCN1S(=O)(=O)c1c(C)cc(OC)cc1C)c1ccccc1 (stereo not drawn) [Example 424, N-(3-(ethyl(phenyl)amino)propyl)-2-((1-(4-methoxy-2,6-dimethylphenylsulfonyl)piperidin-2-yl)methoxy)acetamide]	97.6%	35.1%		
COc1cc(C)c(S(=O)(=O)N2CCCCC2COCC(=O)NCCc2cnccn2)c(C)c1 (stereo not drawn) [Example 425, 2-((1-(4-methoxy-2,6-dimethylphenylsulfonyl)piperidin-2-yl)methoxy)-N-(2-(pyrazin-2-yl)ethyl)acetamide]	98.8%	-0.97%		
COc1cc(C)c(S(=O)(=O)N2CCCCC2COCC(=O)NC(C)Cn2cccn2)c(C)c1 (stereo not drawn) [Example 426, N-(1-(1H-pyrazol-1-yl)propan-2-yl)-2-((1-(4-methoxy-2,6-dimethylphenylsulfonyl)piperidin-2-yl)methoxy)acetamide]	94.4%	-4.95%		
COc1cc(C)c(S(=O)(=O)N2CCCCC2COCC(=O)Nc2ccc(-n3ccnc3C)cc2)c(C)c1 (stereo not drawn) [Example 427, 2-((1-(4-methoxy-2,6-dimethylphenylsulfonyl)piperidin-2-yl)methoxy)-N-(4-(2-methyl-1H-imidazol-1-yl)phenyl)acetamide]	98.8%	102%		
COc1cc(C)c(S(=O)(=O)N2CCCCC2COCC(=O)NCc2ccccc2N2CCCCC2)c(C)c1 (stereo not drawn) [Example 428, 2-((1-(4-methoxy-2,6-dimethylphenylsulfonyl)piperidin-2-yl)methoxy)-N-(2-(piperidin-1-yl)benzyl)acetamide]	102%	23.8%		
COc1cc(C)c(S(=O)(=O)N2CCCCC2COCC(=O)Nc2cccc(N3CCCCC3)c2)c(C)c1 (stereo not drawn) [Example 429, 2-((1-(4-methoxy-2,6-dimethylphenylsulfonyl)piperidin-2-yl)methoxy)-N-(3-(piperidin-1-yl)phenyl)acetamide]	99.5%	14.3%		
COc1cc(C)c(S(=O)(=O)N2CCCCC2COCC(=O)NCc2cccc(N3CCCCC3)c2)c(C)c1 (stereo not drawn) [Example 430, 2-((1-(4-methoxy-2,6-dimethylphenylsulfonyl)piperidin-2-yl)methoxy)-N-(3-(piperidin-1-yl)benzyl)acetamide]	101%	38.6%		
COc1cc(C)c(S(=O)(=O)N2CCCCC2COCC(=O)Nc2ccccc2N2CCN(C)CC2)c(C)c1 (stereo not drawn) [Example 431, 2-((1-(4-methoxy-2,6-dimethylphenylsulfonyl)piperidin-2-yl)methoxy)-N-(2-(4-methylpiperazin-1-yl)phenyl)acetamide]	96.2%	28.4%		
COc1cc(C)c(S(=O)(=O)N2CCCCC2COCC(=O)NCc2ccccc2N2CCN(C)CC2)c(C)c1 (stereo not drawn) [Example 432, 2-((1-(4-methoxy-2,6-dimethylphenylsulfonyl)piperidin-2-yl)methoxy)-N-(2-(4-methylpiperazin-1-yl)benzyl)acetamide]	100%	94%		
COc1cc(C)c(S(=O)(=O)N2CCCCC2COCC(=O)NCc2cccc(N3CCN(C)CC3)c2)c(C)c1 (stereo not drawn) [Example 433, 2-((1-(4-methoxy-2,6-dimethylphenylsulfonyl)piperidin-2-yl)methoxy)-N-(3-(4-methylpiperazin-1-yl)benzyl)acetamide]	100%	103%		
COc1cc(C)c(S(=O)(=O)N2CCCCC2COCC(=O)NCc2ccc(N3CCN(C)CC3)cc2)c(C)c1 (stereo not drawn) [Example 434, 2-((1-(4-methoxy-2,6-dimethylphenylsulfonyl)piperidin-2-yl)methoxy)-N-(4-(4-methylpiperazin-1-yl)benzyl)acetamide]	101%	104%		
COc1cc(C)c(S(=O)(=O)N2CCCCC2COCC(=O)NCc2ccccc2N2CCOCC2)c(C)c1 (stereo not drawn) [Example 435, 2-((1-(4-methoxy-2,6-dimethylphenylsulfonyl)piperidin-2-yl)methoxy)-N-(2-morpholinobenzyl)acetamide]	99.6%	6.23%		
COc1cc(C)c(S(=O)(=O)N2CCCCC2COCC(=O)Nc2cccc(N3CCOCC3)c2)c(C)c1 (stereo not drawn) [Example 436, 2-((1-(4-methoxy-2,6-dimethylphenylsulfonyl)piperidin-2-yl)methoxy)-N-(3-morpholinophenyl)acetamide]	102%	39.2%		
COc1cc(C)c(S(=O)(=O)N2CCCCC2COCC(=O)NCc2cccc(N3CCOCC3)c2)c(C)c1 (stereo not drawn) [Example 437, 2-((1-(4-methoxy-2,6-dimethylphenylsulfonyl)piperidin-2-yl)methoxy)-N-(3-morpholinobenzyl)acetamide]	102%	36.1%		
COc1cc(C)c(S(=O)(=O)N2CCCCC2COCC(=O)Nc2ccc(N3CCOCC3)cc2)c(C)c1 (stereo not drawn) [Example 438, 2-((1-(4-methoxy-2,6-dimethylphenylsulfonyl)piperidin-2-yl)methoxy)-N-(4-morpholinophenyl)acetamide]	100%	22.1%		
COc1cc(C)c(S(=O)(=O)N2CCCCC2COCC(=O)NCc2ccc(N3CCOCC3)cc2)c(C)c1 (stereo not drawn) [Example 439, 2-((1-(4-methoxy-2,6-dimethylphenylsulfonyl)piperidin-2-yl)methoxy)-N-(4-morpholinobenzyl)acetamide]			100.94%	48.25%
